# In patent US20080070987A1, “META-XYLYLENEDIAMINE VANADATE SALTS” (priority 2006, published 2008):
# “Also recorded” adds a separate entry of the source.
# Test system: isolated rat adipocytes
# Test: Glucose (2-deoxyglucose) transport in isolated rat adipocytes
# Type: cell-based, Wistar rats
# Settings: for effect of semicarbazide on the stimulation of glucose transport: 1 mM semicarbazide; for stimulation of glucose transport (2-DG uptake), in words: 45 min incubation; for stimulation of glucose transport compared with the combination of benzylamine and vanadate: combination 100 μM benzylamine and 100 μM vanadate
# Description: FIG. 1 is a graphical illustration of the hexaquis(benzylammonium) decavanadate effects on glucose transport in isolated rat adipocytes. In this Figure, V corresponds to the rate of 2-deoxyglucose transport (expressed relative to the basal rate), and the results are mean +standard error of the mean (SEM). The adipocytes were incubated in the absence of stimulants in the following conditions: basal (1); in the presence of 100 nM insulin (2); in the presence of hexaquis(benzylammonium) decavanadate at concentrations of 0.5 μM (3), 1 μM (4), 2.5 μM (5), 5 μM (6), 10 μM (7), 25 μM (8), 50 μM (9), and 100 μM (10). The cells were also incubated in the presence of the semicarbazide inhibitor (1 mM), and 10 μM hexaquis(benzylammonium) decavanadate (11), 25 μM of hexaquis(benzylammonium) decavanadate (12) or 50 μM hexaquis(benzylammonium) decavanadate (13). In parallel, the cells were incubated in presence of 100 μM of sodium vanadate and 100 μM of benzylamine, in the absence (14) or in the presence of 1 mM of semicarbazide (15).
# FIG. 2 is a graphical illustration of the effects of hexaquis(benzylammonium) decavanadate, pentaquis(benzylammonium) decavanadate and tetraquis(benzylammonium) decavanadate on glucose transport in isolated rat adipocytes. V corresponds to the rate of 2-deoxyglucose uptake (expressed as relation with basal group), and the results are mean +standard error mean. The adipocytes were incubated in the absence of stimulants in the following conditions: basal (1); in the presence of 100 nM of insulin (2); in the presence of hexaquis(benzylammonium) decavanadate at concentrations of 10 μM (3) and 25 μM (4), pentaquis(benzylammonium) decavanadate at concentrations of 10 μM (8) and 25 μM (9), and tetraquis(benzylammonium) decavanadate at concentrations of 10 μM (11) and 25 μM (12). The cells were also incubated in the presence of the semicarbazide inhibitor (1 mM) and, 25 μM of hexaquis(benzylammonium) decavanadate (5), 25 μM of pentaquis(benzylammonium) decavanadate (10) or 25 μM of tetraquis(benzylammonium) decavanadate (13). In parallel, the cells were incubated in the presence of 100 μM of sodium vanadate (6) or in the presence of 250 μM of sodium vanadate (7).
# Adipose cells from Wistar rats were incubated for 45 minutes in basal conditions (Basal) or in the presence of 100 nM insulin (Ins) and different concentrations of. hexaquis(benzylammonium) decavanadate (B6V10) in the absence or in the presence of 1 mM semicarbazide (SCZ). Subsequently, 2-DG transport was measured over a 5 min. interval.
# The effects of the three tested compounds (B6V10, B5V10 and B4V10) were compared. Adipose cells from Wistar rats were incubated for 45 minutes in basal conditions (Basal) or in the presence of 100 nM insulin (Ins), and different concentrations of decavanadate (V10), hexaquis(benzylammonium) decavanadate (B6V10), pentaquis(benzylammonium) decavanadate (B5V10) or tetraquis(benzylammonium) decavanadate (B4V10) in the absence or in the presence of 1 mM semicarbazide (SCZ). 2-DG transport was measured over 5 min. intervals.
# In additional experiments, compounds shown in FIG. 6A, 2-(4-fluoro-phenyl)ethylamine (compound A), 3-phenylpropylamine (compound B), 4-fluoro-benzylamine (compound C) and 4-phenylbutylamine (compound D) were assessed using the experimental methods set forth above for the capacity to stimulate 2-DG uptake in isolated rat adipocytes. Adipose cells from Wistar rats were incubated for 45 minutes in basal conditions (Basal) or in the presence of 100 nM insulin (Ins), and different concentrations of vanadium salts of 2-(4-fluoro-phenyl)-ethylamine (compound A), 3-phenyl-propylamine (compound B), 4-fluoro-benzylamine (compound C) and 4-phenyl-butylamine (compound D). 2-DG transport was measured over 5 min.
# The effects of incubation with semicarbazide or phosphatidylinositol 3-kinase inhibitors were also investigated. […]
# [1] = listed as hexaquis(benzylammonium) decavanadate
Substance,"stimulation of glucose transport, in words (concentrations ranging from 5 to 50 μM)",effect of semicarbazide on the stimulation of glucose transport,effect of semicarbazide on the stimulation of glucose transport [1],"stimulation of glucose transport (2-DG uptake), in words","stimulation of glucose transport (2-DG uptake), in words [1]",concentration from which stimulation of glucose transport is perceptible (FIG. 1),concentration of maximal effect on glucose transport (FIG. 1),"EC50 (FIG. 1, read-out: concentration of semimaximal effect on glucose transport)",stimulation of glucose transport compared with the combination of benzylamine and vanadate,stimulation of glucose transport compared with the combination of benzylamine and vanadate [1],maximal effect on glucose transport as % of the maximal stimulation caused by insulin (insulin 100 nM)
"sodium decavanadate [Example V10, reference compound]",did not stimulate glucose transport,,,,,,,,,,
hexaquis(benzylammonium) decavanadate [Example B6V10],,completely blocked by semicarbazide; also recorded: blocked in the presence of semicarbazide,completely blocked by semicarbazide,concentration-dependent manner,pronounced stimulation on glucose transport,0.5 µM,2.5 µM,> 1000 nM,greater stimulation,greater than that produced by the presence of benzylamine and vanadate in combination,85%
